Patent US4599362A, “2-aryl-ethyl ether derivatives and insecticidal and acaricidal agents containing said derivatives” (priority 1980, dated 1986)
Read-outs that look alike come from different tables or passages of the source.

Assays:
two-spotted spider mite = experiment: Test 6: Effect on Two-Spotted Spider mite adults; assay type: in vivo; conditions: Tetranychus urticae
Experimental: (§1) To a mixture of 20 parts of the compound of the present invention and 20 parts of Sorpol SM-200 (registered trademark for the product supplied by Toho Chemical Industrial Co., Ltd.) was added 60 parts of xylol, and the mixture was sufficiently blended. The obtained emulsifiable concentrate was diluted at a predetermined concentration with distilled water, and the obtained dilution was used.
A kidney bean leaf disc perforated with a cork borer (15 mm in diameter) was placed on water-impreganated absorbent cotton (2 cm×2 cm), and 10 adults of two-spotted spider mite were set free. A chemical dilution having a concentration of 500 ppm was applied with an applicator in an amount of 3 ml.
The leaf disc-placed absorbent cotton was placed in a thermostat chamber maintained at 25° C. After 24 hours, the number of killed adults was counted and the mortality was calculated. The test was made on three leaf discs and the average value was calculated.

[1] = tested on: resistant green rice leafhopper (collected at Nakagawara); experiment: Test 3: Effect on Resistant Green Rice Leafhopper; assay type: in vivo, Nephotettix cincticeps Uhler; conditions: Nephotettix cincticeps, 24 h, read-out: Mortality (%) Green Rice Leafhopper Collected at Nakagawara
Experimental: as §1
(§2) Seedlings (having 2 to 3 leaves) of paddy rice were hydroponically cultured in a pot having a diameter of 5 cm. A chemical dilution having a concentration of 100 or 20 ppm, prepared in the same manner as described in Test 1, was applied with a sprayer at a rate of 3 ml per pot. The treated seedlings were air-dried and covered with a metal net cylinder, and female adults of resistant green rice leafhopper (collected at Nakagawara) and sensitive green rice leafhopper (collected at Chigasaki) were set, respectively, free in the pot at a density of 10 adults per pot. After of 24 hours, the numbers of killed and living adults were counted and the mortality was calculated. The test was made on three pots and the average value was calculated.

[2] = tested on: sensitive green rice leafhopper (collected at Chigasaki); experiment: Test 3: Effect on Sensitive Green Rice Leafhopper; assay type: in vivo; conditions: Nephotettix cincticeps, female adults, 24 hours
Experimental: as §1, §2

[3] = Test 9: Toxicity Test (acute oral, mice); conditions: mouse, in vivo, po
Experimental: In the fish toxicity test, the test compound was dissolved in acetone to form a 1% solution, and a predetermined amount of the solution was used. In the mouse toxicity test, the test compound of the present invention was dissolved or suspended in corn oil, and a predetermined amount of the solution or suspension was used.
A predetermined amount of a solution or suspension of a test compound in corn oil was orally administered to male mice having a body weight of 19 to 23 g (0.2 ml per 10 g of the body weight). After 7 days, the number of killed mice was counted and the influences on the mice were examined.

[4] = tested on: third-instar larvae of diamond back moth; experiment: Test 4: Effect on Diamond Back Moth; assay type: in vivo; conditions: Plutella xylostella, 24 hours
Experimental: as §1
Cabbage leaves were spread in a plastic cup, and 10 third-instar larvae of diamond back moth were set free in the cup.
A chemical dilution having a concentration of 100 or 20 ppm, prepared in the same manner as described in Test 1, was applied from an applicator at a rate of 3 ml per cup.
After scattering of the chemical dilution, the cup was covered, and after 24 hours, the numbers of killed and living larvae were counted and the mortality was calculated. The test was made on three cups and the average value was calculated.

German cockroach = experiment: Test 7: Effect on German Cockroach; assay type: in vivo; conditions: Blattella germanica, male adults, 24 hours, agonized and killed; for mortality at 10 mg/m2: 10 mg/m^2; for mortality at 50 mg/m2: 50 mg/m^2
Experimental: The bottom face of a high Petri dish having a diameter of 9 cm and a height of 9 cm was treated with 50 or 10 mg/m^2 of a test compound and the dish was air-dried. In order to prevent the adults from escaping from the dish, the inner wall of the dish was treated with butter. Then, 10 male adults of German cockroach were set free in each dish, and the dish was placed in a thermostat chamber maintained at 25° C. After 24 hours, the number of agonized and killed adults was counted. The test was made on two dishes and the average value was calculated.

[5] = tested on: Second-instar and fifth-instar larvae of tobacco cutworm; experiment: Test 2: Tobacco Cutworm Larva Dipping Test; assay type: in vivo
Experimental: as §1
A dilution having a chemical concentration of 100 or 20 ppm was prepared in the same manner as described in Test 1.
Second-instar and fifth-instar larvae of tobacco cutworm were dipped in the dilution for 5 seconds, and the excessive dilution was removed by a filter paper. Then, the larvae were set free in a plastic cup and an artificial diet was supplied thereto. The cup was allowed to stand still in a thermostat chamber maintained at 25° C. After 24 hours, the numbers of the killed and living larvae were counted and the mortality was calculated. The test was made on three cups and the result was expressed by an average value.

[6] = 500 ppm, adults, 24 hours, read-out: Mortality (%)
[7] = 20 ppm, second-instar larvae, 24 hours, read-out: Mortality (%) Second-Instar Larvae
[8] = 100 ppm, second-instar larvae, 24 hours, read-out: Mortality (%) Second-Instar Larvae
[9] = topical, 24 h, read-out: Mortality (%) Fifth-Instar Larvae

CCOP(=S)(OCC)Oc1ccc(=O)n(-c2ccccc2)n1 [(d), 0,0-diethyl-0-(3-oxo-2-phenyl-2H-pyridazin-6-yl)-phosphorothioate, reference compound]
mortality at 500 ppm (two-spotted spider mite; 24 h): 80%

CC(C)C(COCc1ccc(F)c(Oc2ccccc2)c1)c1ccc(Cl)cc1 (centres unmarked) [Compound 8, 3-Phenoxy-4-fluorobenzyl 2-(4-chlorophenyl)-3-methylbutyl ether]
mortality at 20 ppm [1]: 100%
mortality at 100 ppm [1]: 100%
mortality at 20 ppm [2]: 100%
mortality at 100 ppm [2]: 100%
LD50 at 168 h [3]: > 500 mg/kg

CC(C)(COCc1ccc(F)c(Oc2ccccc2F)c1)c1ccc(Cl)cc1 [Compound 11, 3-(2-Fluorophenoxy)-4-fluorobenzyl 2-(4-chlorophenyl)-2-methylpropyl ether]
mortality at 20 ppm [1]: 100%
mortality at 100 ppm [1]: 100%
mortality at 20 ppm [2]: 100%
mortality at 100 ppm [2]: 100%
mortality at 20 ppm [4]: 100%
mortality at 100 ppm [4]: 100%
mortality at 500 ppm (two-spotted spider mite; [6]): 100%
mortality at 10 mg/m2 (German cockroach): 100%
mortality at 50 mg/m2 (German cockroach): 100%

CC(C)(COCc1ccc(F)c(Oc2ccccc2)c1)c1ccc2ccccc2c1 [Compound 12, 3-Phenoxy-4-fluorobenzyl 2-(naphthalene-2-yl)-2-methylpropyl ether]
mortality at 20 ppm [1]: 95%
mortality at 100 ppm [1]: 100%
mortality at 20 ppm [2]: 80%
mortality at 100 ppm [2]: 100%
LD50 at 168 h [3]: > 500 mg/kg

CC(C)(COCc1ccc(F)c(Oc2ccccc2)c1)c1cccc(C(F)(F)F)c1 [Compound 17, 3-Phenoxy-4-fluorobenzyl 2-(3-trifluoromethylphenyl)-2-methylpropyl ether]
mortality at 20 ppm [1]: 100%
mortality at 100 ppm [1]: 100%
mortality at 20 ppm [2]: 90%
mortality at 100 ppm [2]: 100%

Cc1cccc(Oc2cc(COCC(C)(C)c3ccc(Cl)cc3)ccc2F)c1 [Compound 22, 3-(3-Methylphenoxy)-4-fluorobenzyl 2-(4-chlorophenyl)-2-methylpropyl ether]
mortality at 20 ppm [1]: 75%
mortality at 100 ppm [1]: 100%
mortality at 20 ppm [2]: 60%
mortality at 100 ppm [2]: 100%

CC(C)(COCc1ccc(F)c(Oc2ccccc2)c1)c1ccc([N+](=O)[O-])cc1 [Compound 30, 3-Phenoxy-4-fluorobenzyl 2-(4-nitrophenyl)-2-methylpropyl ether]
mortality at 20 ppm [1]: 90%
mortality at 100 ppm [1]: 100%
mortality at 20 ppm [2]: 80%
mortality at 100 ppm [2]: 100%

CC(C)(COCc1cc(Oc2ccccc2)ccc1F)c1ccc(Cl)cc1 [Compound 32, 3-Phenoxy-6-fluorobenzyl 2-(4-chlorophenyl)-2-methylpropyl ether]
LD50 at 168 h [3]: > 500 mg/kg

CC(C)(COCc1ccc(F)c(Oc2ccccc2)c1)c1ccc2c(c1)OCO2 [Compound 33, 3-Phenoxy-4-fluorobenzyl 2-(3,4-methylenedioxyphenyl)-2-methylpropyl ether]
mortality at 20 ppm [1]: 100%
mortality at 100 ppm [1]: 100%
mortality at 20 ppm [2]: 100%
mortality at 100 ppm [2]: 100%

Cc1ccc(C(C)(C)COCc2cc(Cl)cc(Oc3ccccc3)c2)cc1 [Compound 37, 3-Phenoxy-5-chlorobenzyl 2-(4-methylphenyl)-2-methylpropyl ether]
LD50 at 168 h [3]: > 500 mg/kg

CC(=O)c1ccc(C(C)(C)COCc2ccc(F)c(Oc3ccccc3)c2)cc1 [Compound 40]
LD50 at 168 h [3]: > 500 mg/kg

CCOc1ccc(C(CC)COCc2ccc(F)c(Oc3ccccc3)c2)cc1 (centres unmarked) [Compound 47, 3-Phenoxy-4-fluorobenzyl 2-(4-ethoxyphenyl)-butylether]
mortality at 20 ppm [4]: 100%
mortality at 100 ppm [4]: 100%
mortality at 500 ppm (two-spotted spider mite; [6]): 85%
mortality at 10 mg/m2 (German cockroach): 100%
mortality at 50 mg/m2 (German cockroach): 100%

CC(C)(COCc1ccc(F)c(Oc2ccccc2)c1)c1ccc(F)c(Cl)c1 [Compound 50, 3-Phenoxy-4-fluorobenzyl 2-(3-chloro-4-fluorophenyl)-2-methylpropyl ether]
mortality at 20 ppm [5, 7]: 90%
mortality at 100 ppm [5, 8]: 100%
mortality at 20 ppm [5, 9]: 80%
mortality at 100 ppm [5, 9]: 100%
mortality at 10 mg/m2 (German cockroach): 100%
mortality at 50 mg/m2 (German cockroach): 100%

CCOc1ccc(Oc2cc(COCC(C)(C)c3ccc(OCC)cc3)ccc2F)cc1 [Compound 53, 3-(4-Ethoxyphenoxy)-4-fluorobenzyl 2-(4-ethoxyphenyl)-2-methylpropyl ether]
mortality at 20 ppm [1]: 100%
mortality at 100 ppm [1]: 100%
mortality at 20 ppm [2]: 90%
mortality at 100 ppm [2]: 100%
mortality at 10 mg/m2 (German cockroach): 100%
mortality at 50 mg/m2 (German cockroach): 100%

CCOc1ccc(C(C)(CC)COCc2ccc(F)c(Oc3ccccc3)c2)cc1 (centres unmarked) [Compound 55, 3-Phenoxy-4-fluorobenzyl 2-(4-ethoxyphenyl)-2-methylbutyl ether]
mortality at 20 ppm [4]: 100%
mortality at 100 ppm [4]: 100%
mortality at 10 mg/m2 (German cockroach): 100%
mortality at 50 mg/m2 (German cockroach): 100%

CCOc1cccc(C(C)(C)COCc2ccc(F)c(Oc3ccccc3)c2)c1 [Compound 57]
mortality at 20 ppm [1]: 100%
mortality at 100 ppm [1]: 100%
mortality at 20 ppm [2]: 100%
mortality at 100 ppm [2]: 100%
mortality at 20 ppm [4]: 100%
mortality at 100 ppm [4]: 100%

CC(C)c1ccc(C(C)(C)COCc2ccc(F)c(Oc3ccccc3)c2)cc1 [Compound 58]
mortality at 20 ppm [1]: 100%
mortality at 100 ppm [1]: 100%
mortality at 20 ppm [2]: 100%
mortality at 100 ppm [2]: 100%
mortality at 500 ppm (two-spotted spider mite; [6]): 100%
mortality at 10 mg/m2 (German cockroach): 100%
mortality at 50 mg/m2 (German cockroach): 100%

CCOc1ccc(C(COCc2ccc(F)c(Oc3ccccc3)c2)C(C)C)cc1 (centres unmarked) [Compound 62, 3-Phenoxy-4-fluorobenzyl 2-(4-ethoxyphenyl)-3-methylbutyl ether]
mortality at 20 ppm [1]: 100%
mortality at 100 ppm [1]: 100%
mortality at 20 ppm [2]: 100%
mortality at 100 ppm [2]: 100%
mortality at 20 ppm [4]: 100%
mortality at 100 ppm [4]: 100%

CCC(C)Oc1ccc(C(C)(C)COCc2ccc(F)c(Oc3ccccc3)c2)cc1 (centres unmarked) [Compound 63]
mortality at 20 ppm [1]: 100%
mortality at 100 ppm [1]: 100%
mortality at 20 ppm [2]: 100%
mortality at 100 ppm [2]: 100%
mortality at 500 ppm (two-spotted spider mite; [6]): 100%
mortality at 10 mg/m2 (German cockroach): 100%
mortality at 50 mg/m2 (German cockroach): 100%

CCCOc1ccc(C(C)(C)COCc2ccc(F)c(Oc3ccccc3)c2)cc1 [Compound 65]
mortality at 20 ppm [1]: 100%
mortality at 100 ppm [1]: 100%
mortality at 20 ppm [2]: 100%
mortality at 100 ppm [2]: 100%
mortality at 20 ppm [4]: 100%
mortality at 100 ppm [4]: 100%
mortality at 10 mg/m2 (German cockroach): 100%
mortality at 50 mg/m2 (German cockroach): 100%

CC(C)(COCc1ccc(F)c(Oc2ccccc2)c1)c1ccc(I)cc1 [Compound 66, 3-Phenoxy-4-fluorobenzyl 2-(4-iodophenyl)-2-methylpropyl ether]
mortality at 20 ppm [5, 7]: 90%
mortality at 100 ppm [5, 8]: 100%
mortality at 20 ppm [5, 9]: 75%
mortality at 100 ppm [5, 9]: 100%
mortality at 20 ppm [1]: 100%
mortality at 100 ppm [1]: 100%
mortality at 20 ppm [2]: 100%
mortality at 100 ppm [2]: 100%
mortality at 20 ppm [4]: 90%
mortality at 100 ppm [4]: 100%
mortality at 500 ppm (two-spotted spider mite; [6]): 100%
mortality at 10 mg/m2 (German cockroach): 100%
mortality at 50 mg/m2 (German cockroach): 100%
